In BindingDB's records for doi:10.1021/jm020572p (University of North Carolina at Chapel Hill, 2003):
pKi: −log10 of the molar value.

Columns and labels:
[1] = biological target: T1, Muscarinic acetylcholine receptor M5 (Homo sapiens, UniProt P08912); assay: Binding affinity of compound was determined towards human Muscarinic acetylcholine receptor M5 using [3H]QNB radioligand
T1 sequence (P08912 whole entry): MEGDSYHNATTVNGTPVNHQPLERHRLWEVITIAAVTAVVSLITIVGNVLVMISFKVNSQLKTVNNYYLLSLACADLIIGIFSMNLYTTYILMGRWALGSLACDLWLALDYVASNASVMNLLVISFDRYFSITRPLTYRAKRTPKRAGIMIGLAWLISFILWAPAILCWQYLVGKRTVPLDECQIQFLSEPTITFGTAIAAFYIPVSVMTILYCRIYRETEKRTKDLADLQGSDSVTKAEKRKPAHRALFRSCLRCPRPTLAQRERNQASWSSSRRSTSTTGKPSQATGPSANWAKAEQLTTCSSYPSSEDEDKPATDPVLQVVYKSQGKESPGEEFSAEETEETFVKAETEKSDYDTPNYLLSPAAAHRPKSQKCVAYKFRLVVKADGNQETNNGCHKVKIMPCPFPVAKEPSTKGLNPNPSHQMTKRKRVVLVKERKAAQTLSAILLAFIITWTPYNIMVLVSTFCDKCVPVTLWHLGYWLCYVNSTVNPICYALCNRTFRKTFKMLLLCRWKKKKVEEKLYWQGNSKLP

[2] = biological target: T2, Muscarinic acetylcholine receptor M2 (Homo sapiens, UniProt P08172); assay: Binding affinity of compound was determined towards human Muscarinic acetylcholine receptor M2 using [3H]QNB radioligand
T2 sequence (P08172 whole entry): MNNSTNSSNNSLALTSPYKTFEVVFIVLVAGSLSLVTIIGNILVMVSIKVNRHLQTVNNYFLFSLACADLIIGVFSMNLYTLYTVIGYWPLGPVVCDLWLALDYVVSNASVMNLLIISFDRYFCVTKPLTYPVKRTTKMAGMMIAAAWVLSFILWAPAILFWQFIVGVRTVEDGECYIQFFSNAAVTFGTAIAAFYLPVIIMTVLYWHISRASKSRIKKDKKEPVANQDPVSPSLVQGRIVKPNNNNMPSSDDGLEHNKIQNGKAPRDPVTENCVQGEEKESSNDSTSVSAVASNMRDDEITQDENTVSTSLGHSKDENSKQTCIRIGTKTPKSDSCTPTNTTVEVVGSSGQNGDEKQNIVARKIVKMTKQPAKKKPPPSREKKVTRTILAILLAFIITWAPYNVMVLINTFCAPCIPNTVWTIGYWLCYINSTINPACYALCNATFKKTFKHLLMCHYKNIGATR

- pKi [1]: 6.25
- pKi [2]: 7.10
SMILES: CCOC(=O)C1CN2CC(CCC2COCc2ccccc2)C1=O (stereo not drawn) [exo-8-Benzyloxymethyl-4-hydroxy-1-aza-bicyclo[3.3.1]non-3-ene-3-carboxylic acid ethyl ester]
